Results as given in patent US20260325504A1, “Genetically Engineered Human Pituitary Corticotroph Tumor Organoids Exhibit Divergent Responses to Selective Glucocorticoid Receptor Modulators” (Corcept Therapeutics Incorporated, priority 2022, published 2026).
“Also recorded” adds a separate entry of the source.

Experiments:
Format in all cases: cell-based, human
SSTR5 = assay: Differential expression of SSTR5 (qRT-PCR) in iPSC generated pituitary organoids; conditions: for expression of SSTR5: 500 nM, vs vehicle; for SSTR5 induction relative to SSTR2: PitNET organoids, summary
Method: (§1) Sonic Hedgehog (SHH) was withdrawn from the organoid growth media 16 hours prior to treatment. The experimental treatment groups included: vehicle (Veh), mifepristone (500 nM, Selleckchem S2606), GANT61 (5 μM, Stemcell Technologies 73692), ketoconazole (Keto, 10 μM, Selleckchem S1353), pasireotide (Pas, 100 nM, Target Mol TP2207-SB001), octreotide (Oct, 100 nM, Selleckchem P1017), mifepristone plus GANT61, mifepristone plus Keto, mifepristone plus Pas, relacorilant (500 nM, Corcept Therapeutics CORT125134), relacorilant plus Pas, relacorilant plus Oct, or dexamethasone (Dexa, 100 nM, SIGMA S4902). In the combination treatments, cultures were pretreated with the GANT61, Keto, Pas or Oct for 2 hours prior to treatment with mifepristone or Rela. PitNET tissue derived organoids hPITO36, hPITO37, hPITO38, hPITO39, and hPITO40 were treated with the following experimental conditions: Vehicle (1), pasireotide (2), relacorilant (3), relacorilant & pasireotide (4), mifepristone (5), mifepristone & pasireotide (6). The IC50 values used for each hPITO line for each drug were determined based on dose responses (FIG. 12). All organoid cultures were treated for 48 hours prior to analysis.
(§2) RNA was extracted from PitNET tissue or iPSC generated organoids using TRI Reagent® (Molecular Research Center Inc TR118) and the High Capacity cDNA Reverse Transcription Kit (Applied Biosystems, Foster City, CA) was used for cDNA synthesis of RNA following the recommended protocol. For each sample, 60 ng RNA was reverse transcribed to yield approximately […] total cDNA that was then used for the qRT-PCR. Pre-designed real-time polymerase chain reaction assays were purchased for the following genes: TPit (Thermo Fisher Scientific 4331182 Hs00193027), SF1 (Thermo Fisher Scientific 4331182 Hs00610436), SSTR2 (Thermo Fisher Scientific 4331182 Hs00265624_s1), SSTR5 (Thermo Fisher Scientific 4331182 Hs00990407_s1), POMC (Thermo Fisher Scientific 4331182 Hs01596743_ml), hPRT (Thermo Fisher Scientific 4331182 Hs02800695_ml), and FKBP5 (Thermo Fisher Scientific 4331182 Hs01561006_m1). Polymerase chain reaction amplifications were performed in a total volume of 20 μL containing 20× TaqMan Expression Assay primers, 2× TaqMan Universal Master Mix (Applied Biosystems, TaqMan® Gene Expression Systems), and cDNA template. Each polymerase chain reaction amplification was performed in triplicate wells in a StepOne Real-Time PCR System (Applied Biosystems) by using the following conditions: 500C 2 minutes, 95° C. 10 minutes, 95° C. 15 seconds (denature) and 60° C. 1 minute (anneal/extend) for 40 cycles. Fold change was calculated as the following: (Ct-Ct high)=n target, 2ntarget/2nHPRT=fold change where Ct=threshold cycle. The results were expressed as average fold change in or differential gene expression relative to control, with HPRT used as an internal control according to Livak and Schmittgen.

iPSC^USP48MV organoids = assay: EdU uptake (proliferation) in iPSCUSP48MV organoids; conditions: compound alone, 500 nM, 48 h
Method: iPSCs were stained for pituitary specific hormones including luteinizing hormone (LH), follicle-stimulating hormone (FSH), growth hormone (GH), prolactin (PRL), ACTH, cytokeratin 8/18 (CAM5.2), pituitary transcription factor PIT-1 and neuroendocrine marker Synaptophysin (Table 5). Cultures were immunostained for proliferation marker EdU (Click-IT EdU Alexa Fluor 555 Imaging Kit, Thermo Fisher Scientific C10338). Antibody dilutions were determined based on manufacturer guidelines and antibody titration (Table 5). Staining was conducted according to previously published protocols. Briefly, organoids and iPSCs grown in 8-well glass bottom chamber slides were fixed using 3.7% formaldehyde, washed with DPBS, permeabilized with 0.5% Triton X-100 (SIGMA X-100, PBS-T, 20 min at room temperature), washed with 0.01% PBS-T, and blocked with 2% donkey serum (Jackson Immuno Research 017-000-121) for 1 hour at room temperature. After blocking, primary antibodies were added and incubated overnight at 4° C. Slides were washed with 0.01% PBS-T and incubated with secondary antibodies (Table 5) with Hoechst (Thermo Fisher Scientific H1399) for 1 hour at room temperature. Organoids were washed and stored in PBS at 4° C. until microscopic analysis. High content confocal microscopy was performed using the Nikon Ti2-E Inverted Microscope (with a Crest X-Light V2 L-FOV Spinning Disk Confocal) at the University of Arizona Cancer Center, or a ZEISS LSM880 34 channel Laser Scanning Confocal Microscope at University of Arizona Marley Imaging Core. Fluorescence intensity was quantified as the percentage of marker-positive cells versus total cells, using Nikon Elements Software (Version 5.21.05). Proliferation for each iPSC line was quantified as the percentage of EdU-positive cells versus total cells.
as §1, with “PitNET tissue derived organoids hPITO36, hPITO37, hPITO38, hPITO39, and hPITO40 were treated with the following experimental conditions: Vehicle (1), pasireotide (2), relacorilant (3), relacorilant & pasireotide (4), mifepristone (5), mifepristone & pasireotide (6).” left out, “All organoid cultures were treated for 48 hours prior to analysis.” left out

FKBP5 = FKBP5 expression (GR target gene, qRT-PCR) in PitNET organoids; conditions: 48 h, FIG. 16A-C; for differential expression of FKBP5: PitNET organoids (iPSCctrl, iPSCUSP48MV, iPSCUSP8)
Method: as §1
as §2, with “10 minutes, 95° C. 15 seconds (denature) and 60° C. 1 minute (anneal/extend) for 40 cycles.” left out

Structure (SMILES)	expression of SSTR5 (SSTR5; iPSC organoids, 48 h)	differential expression of SSTR5 (SSTR5; iPSCctrl organoids, compound alone, 48 h, FIG. 5C, D)	proliferation (EdU uptake) (iPSC^USP48MV organoids)	differential expression of FKBP5 (FKBP5)	SSTR5 induction relative to SSTR2 (SSTR5)	SSTR5 induction relative to SSTR2 (SSTR5; listed as Relacorilant)	induction in SSTR5 expression, relacorilant compared to mifepristone (SSTR5; iPSC organoids, 500 nM each, 48 h, FIG. 5B)	magnitude of FKBP5 inhibition, compared to mifepristone (FKBP5; PitNET organoids)
CC#C[C@]1(O)CC[C@H]2[C@@H]3CCC4=CC(=O)CCC4=C3[C@@H](c3ccc(N(C)C)cc3)C[C@@]21C [mifepristone, 11β-(4-dimethylaminophenyl)-17ß-hydroxy-17α-(1-propynyl)-estra-4,9-dien-3-one]	significant induction; also recorded: significantly induced the expression	significantly induced	significant increase in cell proliferation	significantly reduced	–	–	–	–
Cn1cc(S(=O)(=O)N2CCC3=Cc4c(cnn4-c4ccc(F)cc4)C[C@]3(C(=O)c3cc(C(F)(F)F)ccn3)C2)cn1 [relacorilant, (R)-(1-(4-fluorophenyl)-6-((1-methyl-1H-pyrazol-4-yl)sulfonyl)-4,4a,5,6,7,8-hexahydro-1H-pyrazolo[3,4-g]isoquinolin-4a-yl) (4-(trifluoromethyl)pyridin-2-yl) methanone]	significant induction; also recorded: significantly induced the expression	–	did not induce organoid proliferation	significantly reduced	predominantly induced SSTR5 expression; also recorded: greater induction of SSTR5 expression as compared to SSTR2	predominantly induces SSTR5	induced greater SSTR5 expression	significantly greater
